Experimental data published in ChEMBL document CHEMBL1141975, “The development of potent and selective bisarylmaleimide GSK3 inhibitors” (Bioorg Med Chem Lett, 2005).
pIC50: −log10 of the molar value.

Columns and labels:
[1] = molecular target: Glycogen synthase kinase-3 (Homo sapiens, UniProt P49840+P49841); experiment: Inhibitory concentration against the Glycogen synthase kinase-3; type: protein assay
Homo sapiens [2] = species on record: Homo sapiens; experiment: IC50 ratio between CDK4 and GSK-3
Homo sapiens [3] = species on record: Homo sapiens; experiment: IC50 ratio between PKCbeta II and GSK-3
[4] = molecular target: Glycogen synthase kinase-3 beta (Homo sapiens, UniProt P49841); experiment: Inhibitory concentration to inhibit Ser396 phosphorylation of tau, a natural substrate of GSK-3 in SY5Y cells; type: functional, cell-based
Chain of Glycogen synthase kinase-3 beta (P49841 whole entry): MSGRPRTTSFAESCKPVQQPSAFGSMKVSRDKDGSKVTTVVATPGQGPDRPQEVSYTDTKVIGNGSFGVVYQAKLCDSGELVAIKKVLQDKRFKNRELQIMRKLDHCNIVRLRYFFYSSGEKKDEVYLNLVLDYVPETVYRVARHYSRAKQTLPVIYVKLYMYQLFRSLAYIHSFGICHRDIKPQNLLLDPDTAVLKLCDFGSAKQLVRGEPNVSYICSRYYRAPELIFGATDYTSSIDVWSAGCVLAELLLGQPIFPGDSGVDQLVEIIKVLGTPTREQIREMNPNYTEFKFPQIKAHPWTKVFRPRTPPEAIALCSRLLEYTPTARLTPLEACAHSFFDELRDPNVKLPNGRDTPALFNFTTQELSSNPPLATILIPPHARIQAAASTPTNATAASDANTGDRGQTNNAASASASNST

Row | SMILES | IC50 [1] [nM] | Selectivity (Homo sapiens [2]) | Selectivity (Homo sapiens [3]) | pIC50 [4]
1 | CN(C)C(=O)N1CCn2cc(C3=C(c4cccc5c4OCO5)C(=O)NC3=O)c3cccc(c32)C1 | 3.2 | 89 | 190 | 
2 | O=C1NC(=O)C(c2cnc3ncccn23)=C1c1cn2c3c(cccc13)CN(C(=O)N1CCCCC1)CC2 | 1.9 | 10000 | > 1060 | 7.28
3 | CN(C)C(=O)N1CCn2cc(C3=C(c4cccc5ccoc45)C(=O)NC3=O)c3cccc(c32)C1 | 2.7 | 35 | 89 | 
4 | O=C1NC(=O)C(c2cn3c4c(cccc24)CNCC3)=C1c1ccc2c(c1)COC2 | 83 |  |  | 
5 | O=C1NC(=O)C(c2cnc3cccnn23)=C1c1cn2c3c(cccc13)CN(C(=O)N1CCCCC1)CC2 [BISARYLMALEIMIDE 1] | 1.6 | 1330 | 1300 | 9.52
6 | O=C1NC(=O)C(c2cnc3cnccn23)=C1c1cn2c3c(cccc13)CN(C(=O)N1CCOCC1)CC2 | 3.2 | 4550 | > 6300 | 7.96
7 | CC(=O)N1CCn2cc(C3=C(c4cccc5c4OCO5)C(=O)NC3=O)c3cccc(c32)C1 | 2.5 | 50 | 240 | 
8 | O=C1NC(=O)C(c2ccn3ncccc23)=C1c1cn2c3c(cccc13)CN(C(=O)N1CCOCC1)CC2 | 1.3 | 1900 |  | 
9 | O=C1NC(=O)C(c2cnc3ncccn23)=C1c1cn2c3c(cccc13)CNCC2 | 120 | 20 | 112 | 
10 | CC(=O)N1CCn2cc(C3=C(c4cccc5ccoc45)C(=O)NC3=O)c3cccc(c32)C1 | 1.5 | 25 | 80 | 
11 | O=C1NC(=O)C(c2cnc3ccccn23)=C1c1cn2c3c(cccc13)CNCC2 | 12 | 13 | 28 | 
12 | CN(C)C(=O)N1CCn2cc(C3=C(c4cnc5ccccn45)C(=O)NC3=O)c3cccc(c32)C1 | 1.6 | 907 | 635 | 
13 | CC(=O)N1CCn2cc(C3=C(c4cccc5ccsc45)C(=O)NC3=O)c3cccc(c32)C1 | 19 | 7 | 7 | 
14 | CN(C)C(=O)N1CCn2cc(C3=C(c4ccn5ncccc45)C(=O)NC3=O)c3cccc(c32)C1 | 4.7 | 370 | 235 | 7.42
15 | O=C1NC(=O)C(c2cncc3ccoc23)=C1c1cn2c3c(cccc13)CN(C(=O)N1CCOCC1)CC2 [BISARYLMALEIMIDE 2] | 0.8 | 158 |  | 
16 | CC(=O)N1CCn2cc(C3=C(c4cnc5ccccn45)C(=O)NC3=O)c3cccc(c32)C1 | 1.9 | 483 | 457 | 6.95

Row | SMILES | IC50 [1] [nM] | Selectivity (Homo sapiens [2]) | Selectivity (Homo sapiens [3]) | pIC50 [4]
17 | O=C1NC(=O)C(c2cnc3ccccn23)=C1c1cn2c3c(cccc13)CN(C(=O)N1CCOCC1)CC2 | 1.3 |  |  | 
18 | O=C1NC(=O)C(c2cnc3ccccn23)=C1c1cn2c3c(cccc13)CN(C(=O)C1CCOCC1)CC2 | 0.8 | 2650 | 1740 | 8.11
19 | O=C1NC(=O)C(c2cn3c4c(cccc24)CNCC3)=C1c1cccc2c1OCC2 | 3.3 | 7 | 53 | 
20 | Cn1ccc2c(C3=C(c4cn5c6c(cccc46)CNCC5)C(=O)NC3=O)cccc21 | 33 | 1 | 28 | 
21 | O=C1NC(=O)C(c2cnc3cccnn23)=C1c1cn2c3c(cccc13)CNCC2 | 4.8 | 15 | 133 | 
22 | O=C1NC(=O)C(c2cncc3ccoc23)=C1c1cn2c3c(cccc13)CN(C(=O)N1CCCCC1)CC2 | 2.1 | 92 | 108 | 
23 | O=C1NC(=O)C(c2cn3c4c(cccc24)CNCC3)=C1c1cccc2sccc12 | 34 |  |  | 
24 | CC(C)C(=O)N1CCn2cc(C3=C(c4cnc5ccccn45)C(=O)NC3=O)c3cccc(c32)C1 | 1.8 | 2020 | 522 | 8.30
25 | O=C1NC(=O)C(c2cnc3cnccn23)=C1c1cn2c3c(cccc13)CN(C(=O)N1CCCCC1)CC2 | 2.1 | 8920 | > 9500 | 8.06
26 | CC(=O)N1CCn2cc(C3=C(c4cccc5c4OCC5)C(=O)NC3=O)c3cccc(c32)C1 | 1.1 | 77 | 133 | 
27 | O=C1NC(=O)C(c2cnc3ccccn23)=C1c1cn2c3c(cccc13)CN(C(=O)N1CCCCC1)CC2 | 2 | 2420 | 281 | 
28 | O=C1NC(=O)C(c2cnc3ccncn23)=C1c1cn2c3c(cccc13)CN(C(=O)N1CCOCC1)CC2 | 71 | > 282 | > 282 | 
29 | O=C1NC(=O)C(c2cn3c4c(cccc24)CNCC3)=C1c1ccc2c(c1)OCO2 | 27 | 18 | 202 | 
30 | O=C1NC(=O)C(c2cnc3ncccn23)=C1c1cn2c3c(cccc13)CN(C(=O)N1CCOCC1)CC2 | 1.7 | 8580 | > 11800 | 6.53
31 | O=C1NC(=O)C(c2cn3c4c(cccc24)CNCC3)=C1c1cccc2c1ccn2CCCO | 27 | 1 | 9 | 

Next, values leading:

Row | IC50 [1] [nM] | Selectivity (Homo sapiens [2]) | Selectivity (Homo sapiens [3]) | pIC50 [4] | SMILES
32 | 64 |  |  |  | O=C1NC(=O)C(c2cn3c4c(cccc24)CNCC3)=C1c1coc2ccccc12
33 | 150 |  |  |  | O=C1NC(=O)C(c2cccc3cc[nH]c23)=C1c1cn2c3c(cccc13)CNCC2
34 | 60 | 19 | > 334 |  | O=C1NC(=O)C(c2cnc3cnccn23)=C1c1cn2c3c(cccc13)CNCC2
35 | 0.9 | 60 | 422 |  | CC(=O)N1CCn2cc(C3=C(c4cncc5ccoc45)C(=O)NC3=O)c3cccc(c32)C1
36 | 1.2 | 112 |  |  | CN(C)C(=O)N1CCn2cc(C3=C(c4cncc5ccoc45)C(=O)NC3=O)c3cccc(c32)C1
37 | 13 | 2 | 103 |  | O=C1NC(=O)C(c2cn3c4c(cccc24)CNCC3)=C1c1cccc2c1OCO2
38 | 330 | 14 | 3 |  | O=C1NC(=O)C(c2cnc3ccncn23)=C1c1cn2c3c(cccc13)CNCC2
39 | 1 | 98 | 375 |  | CCC(=O)N1CCn2cc(C3=C(c4cncc5ccoc45)C(=O)NC3=O)c3cccc(c32)C1
40 | 41 | 1 | 39 |  | O=C1NC(=O)C(c2cn3c4c(cccc24)CNCC3)=C1c1cccc2occc12
41 | 3.2 | 6 | 54 |  | O=C1NC(=O)C(c2cncc3ccoc23)=C1c1cn2c3c(cccc13)CNCC2
42 | 3.4 | 5 | 183 |  | O=C1NC(=O)C(c2cccc3ccoc23)=C1c1cn2c3c(cccc13)CNCC2
43 | 45 | 1 | 15 |  | O=C1NC(=O)C(c2cccc3ccsc23)=C1c1cn2c3c(cccc13)CNCC2
44 | 130 |  |  |  | O=C1NC(=O)C(c2cn3c4c(cccc24)CNCC3)=C1c1cccc2c1CCO2
45 | 30 | 10 | 18 |  | O=C1NC(=O)C(c2ccn3ncccc23)=C1c1cn2c3c(cccc13)CNCC2
